In ChEMBL document CHEMBL6127134, “Light-Activable Inhibitor Overcomes Antimicrobial Resistance and Regulates Antibacterial Activity” (J Med Chem, 2024):
≈ marks a conversion by molar mass, not a printed value. Calls of active or inactive are those of the source. No cut-off for these calls is given here.

Legend:
[1] = test system: Bacteria; experiment: Inhibition of TEM-1 activity (unknown origin); conditions: concentration not given here
[2] = Photoactivation of the compound assessed as photo conversion ratio by measuring SU release under 5 mins of blue light irradiation by HPLC analysis
[3] = test system: Escherichia coli; experiment: Antibiofilm activity against drug susceptible Escherichia coli incubated for 48 hrs by crystal violet staining based microplate reader assay; assay type: functional, organism-based
[4] = test system: Escherichia coli; experiment: Antibacterial activity against cefoperazone sodium resistant Escherichia coli incubated for 8 hrs; assay type: functional
[5] = test system: Escherichia coli; experiment: Antibiofilm activity against drug resistant Escherichia coli incubated for 48 hrs by crystal violet staining based microplate reader assay; assay type: functional
[6] = test system: Escherichia coli; experiment: Antibacterial activity against cefoperazone sodium resistant Escherichia coli assessed as elimination of resistant bacteria incubated for 8 hrs; assay type: functional
[7] = test system: Escherichia coli; experiment: Antibacterial activity against CFS resistant Escherichia coli assessed as change in bacterial cell wall by SEM analysis; assay type: functional, organism-based
[8] = test system: Escherichia coli; experiment: Antibacterial activity against cefoperazone sodium susceptible Escherichia coli incubated for 8 hrs; assay type: functional
[9] = test system: Escherichia coli; experiment: Bactericidal activity against CFS resistant Escherichia coli incubated under dark condition by AO/EB staining based confocal laser scanning microscopy assay; assay type: functional, organism-based
[10] = test system: Escherichia coli; experiment: Bactericidal activity against CFS susceptible Escherichia coli incubated under dark condition by AO/EB staining based confocal laser scanning microscopy assay; assay type: functional, organism-based
[11] = test system: Escherichia coli; experiment: Bactericidal activity against CFS susceptible Escherichia coli incubated under light irradiation by AO/EB staining based confocal laser scanning microscopy assay; assay type: functional, organism-based
[12] = test system: Escherichia coli; experiment: Antibiofilm activity against drug resistant Escherichia coli incubated for 48 hrs under light irradiation in presence of CFS by crystal violet staining based microplate reader assay; assay type: functional
[13] = test system: Escherichia coli; experiment: Synergistic antibacterial activity against cefoperazone sodium resistant Escherichia coli assessed as decrease in CFS MIC at 132 ug/ml preincubated for 20 mins prior to 405 nm LED laser irradiation for 5 mins and cocultured for 6 hrs under static condition and measured after 24 hrs by plate count method (reference value: 285 ug/ml); assay type: functional; conditions: light or radiation study, 30.42 h, dose 132 µg/ml, time 1825 min
[14] = test system: Escherichia coli; experiment: Synergistic antibacterial activity against Escherichia coli incubated under dark condition in presence of AMP; assay type: functional, organism-based
[15] = Photoactivation of the compound assessed as encapsulated SU release under 405 nm light irradiation by HPLC analysis
[16] = test system: Escherichia coli; experiment: Synergistic bactericidal activity against CFS resistant Escherichia coli incubated under dark condition in presence of CFS by AO/EB staining based confocal laser scanning microscopy assay; assay type: functional, organism-based
[17] = test system: HeLa; experiment: Cytotoxicity against human HeLa cells assessed as viable cells after 200 ug/ml incubated for 24 hrs by MTT assay; assay type: functional; conditions: read-out: Activity
[18] = test system: Bacteria; experiment: Inhibition of TEM-1 activity (unknown origin) at 65 ug/ml using nitrocefin as substrate preincubated for 30 mins followed by 485 nm light irradiation and substrate addition measured after 2 mins by UV-Vis spectrometer assay; conditions: dose 65.0 µg/ml, time 32.0 min
[19] = test system: Escherichia coli; experiment: Synergistic antibacterial activity against cefoperazone sodium resistant Escherichia coli assessed as elimination of resistant bacteria incubated for 8 hrs in presence of CFS; assay type: functional
[20] = test system: Escherichia coli; experiment: Antibiofilm activity against drug susceptible Escherichia coli incubated for 48 hrs in presence of CFS by crystal violet staining based microplate reader assay; assay type: functional, organism-based
[21] = test system: Escherichia coli; experiment: Bactericidal activity against drug resistant Escherichia coli after repeated drug exposure for multiple generation under light irradiation in presence of CFS by plate count method; assay type: functional, organism-based
[22] = test system: Escherichia coli; experiment: Synergistic antibacterial activity against Escherichia coli incubated under light irradiation in presence of AMP; assay type: functional, organism-based
[23] = test system: Escherichia coli; experiment: Synergistic bactericidal activity against CFS susceptible Escherichia coli incubated under light irradiation in presence of CFS by AO/EB staining based confocal laser scanning microscopy assay; assay type: functional, organism-based
[24] = test system: Escherichia coli; experiment: Antibiofilm activity against Escherichia coli assessed as reduction in bacterial cell density after 48 hrs under light irradiation in presence of CFS by FITC-ConA staining based confocal laser scanning microscopy analysis; assay type: functional, organism-based
[25] = test system: Escherichia coli; experiment: (§1) Synergistic antibacterial activity against cefoperazone sodium resistant Escherichia coli assessed as elimination of resistant bacteria in presence of CFS preincubated for 20 mins prior to 405 nm LED laser irradiation for 5 mins and cocultured for 6 hrs under static condition and measured after 24 hrs by plate count method; assay type: functional; conditions: time 1825 min; 30.42 h
[26] = test system: Bacteria; experiment: Inhibition of TEM-1 activity (unknown origin) at 65 ug/ml using nitrocefin as substrate preincubated for 30 mins followed by 485 nm light irradiation and substrate addition by UV-Vis spectrometer assay; conditions: dose 65.0 µg/ml
[27] = Solubility of compound in water; assay type: physicochemical
[28] = test system: Escherichia coli; experiment: Antibiofilm activity against drug resistant Escherichia coli incubated for 48 hrs in presence of CFS by crystal violet staining based microplate reader assay; assay type: functional
[29] = test system: Bacteria; experiment: Inhibition of TEM-1 activity (unknown origin) at 65 ug/ml using nitrocefin as substrate under absence of light irradiation by UV-Vis spectrometer assay; conditions: dose 65.0 µg/ml
[30] = Stability of compound under ambient light condition measured after 72 hrs; assay type: physicochemical
[31] = test system: Escherichia coli; experiment: Synergistic bactericidal activity against CFS susceptible Escherichia coli incubated under dark condition in presence of CFS by AO/EB staining based confocal laser scanning microscopy assay; assay type: functional, organism-based
[32] = test system: Escherichia coli; experiment: Synergistic antibacterial activity against Escherichia coli assessed as appearance of shrunken cell wall under light irradiation in presence of CFS; assay type: functional, organism-based
[33] = test system: Bacteria; experiment: Inhibition of TEM-1 activity (unknown origin) at 65 ug/ml using nitrocefin as substrate preincubated for 30 mins followed by 485 nm light irradiation and substrate addition measured after 5 mins by UV-Vis spectrometer assay; conditions: dose 65.0 µg/ml, time 35.0 min
[34] = test system: Escherichia coli; experiment: Synergistic antibacterial activity against Escherichia coli assessed as appearance of incomplete cell wall under light irradiation in presence of CFS; assay type: functional, organism-based
[35] = test system: Escherichia coli; experiment: as §1, with “CFS” for “cefoperazone sodium”, “increase in bacterial killing” for “elimination of resistant bacteria”; assay type: functional, organism-based; conditions: time 1825.0 min
[36] = test system: Escherichia coli; experiment: Antibiofilm activity against Escherichia coli assessed as reduction in exo-polysaccharide content after 48 hrs under light irradiation in presence of CFS by FITC-ConA staining based confocal laser scanning microscopy analysis; assay type: functional, organism-based
[37] = test system: Escherichia coli; experiment: Synergistic antibacterial activity against CFS susceptible Escherichia coli assessed as increase in bacterial killing incubated under dark condition in presence of CFS; assay type: functional, organism-based
[38] = test system: Escherichia coli; experiment: Synergistic bactericidal activity against CFS resistant Escherichia coli incubated under light irradiation in presence of CFS by AO/EB staining based confocal laser scanning microscopy assay; assay type: functional, organism-based
[39] = test system: Escherichia coli; experiment: Downregulation of beta-lactamase expression in Escherichia coli measured after eighth generation in presence of CFS under light irradiation condition by ELISA; assay type: functional
[40] = Drug uptake in Escherichia coli assessed as increase in red fluorescence at 1 mg/ml after 1 mins under 405 nm light irradiation by acridine orange staining based confocal laser scanning microscopy analysis; assay type: ADME
[41] = Drug uptake in Escherichia coli assessed as increase in red fluorescence at 1 mg/ml incubated for 15 mins under dark condition by acridine orange staining based confocal laser scanning microscopy analysis; assay type: ADME; conditions: 0.25 h
[42] = test system: Escherichia coli; experiment: Bactericidal activity against drug resistant Escherichia coli in presence of CFS by plate count method; assay type: functional
[43] = test system: Escherichia coli; experiment: Bactericidal activity against drug resistant Escherichia coli after repeated drug exposure for three generation and measured on fourth generation in presence of CFS by plate count method; assay type: functional
[44] = test system: Bacteria; experiment: Inhibition of TEM-1 activity (unknown origin) at 10 ug/ml using nitrocefin as substrate preincubated for 30 mins followed by 485 nm light irradiation and substrate addition by UV-Vis spectrometer assay; conditions: dose 10.0 µg/ml
[45] = test system: Escherichia coli; experiment: Synergistic antibacterial activity against cefoperazone sodium resistant Escherichia coli assessed as decrease in CFS MIC at 20 ug/ml incubated for 8 hrs (reference value: 285 ug/ml); assay type: functional; conditions: dose 20 µg/ml
[46] = test system: Escherichia coli; experiment: Antibacterial activity against drug susceptible Escherichia coli; assay type: functional
[47] = test system: Escherichia coli; experiment: Antibacterial activity against drug resistant Escherichia coli; assay type: functional

CC1(C)C(C(=O)OCCCOC(=O)Cc2ccccc2[N+](=O)[O-])N2C(=O)CC2S1(=O)=O (stereo not given)
inhibition [1]: 10.6%

CC1(C)C(C(=O)OCCc2ccccc2[N+](=O)[O-])N2C(=O)CC2S1(=O)=O (stereo not given)
Activity [2]: 25%
inhibition [1]: 9.03%

CCN1CCN(C(=O)N[C@@H](C(=O)N[C@@H]2C(=O)N3C(C(=O)[O-])=C(CSc4nnnn4C)CS[C@H]23)c2ccc(O)cc2)C(=O)C1=O.[Na+] [CEFOPERAZONE SODIUM]
Activity [3]: Active
MIC [4]: 285 µg/mL
Activity [5]: ~50%
Activity [6]: 54.2%
Activity [7]: inactive
MIC [8]: 14 µg/mL
Activity [9]: inactive
Activity [10]: Active
Activity [11]: Active

CC(COC(=O)C1N2C(=O)CC2S(=O)(=O)C1(C)C)c1cc(-c2ccc(OCCOCCOCCOCCn3nncc3CCCO[C@H]3O[C@H](CO)[C@H](O)[C@H](O)[C@H]3O)cc2)ccc1[N+](=O)[O-] (stereo not given in full)
Activity [12]: ~90%
MIC [13]: 14 µg/mL
Activity [14]: Active
Activity [15]: ~ 60%
Activity [16]: inactive
viability at 200 µg/mL [17]: > 90%
inhibition [18]: 84.7%
Activity [19]: 54.7%
Activity [20]: Active
Activity [21]: Active
Activity [22]: Active
Activity [23]: Active
Activity [24]: Active
Activity [25]: 96.01%
inhibition [26]: Active
solubility [27]: ≤ 1000 µM
Activity [28]: ~50%
inhibition [29]: 7.26%
Stability [30]: Stable
Activity [31]: inactive
Activity [32]: Active
inhibition [33]: 89.1%
Activity [34]: Active
Activity [35]: Active
Activity [36]: Active
Activity [2]: 62%
Activity [37]: Active
Activity [38]: Active
Activity [39]: Active

CCN(CC)c1ccc2c(-c3ccccc3COCC(C)c3cc(-c4ccc(OCCOCCOCCOCCn5nncc5CCCO[C@H]5O[C@H](CO)[C@H](O)[C@H](O)[C@H]5O)cc4)ccc3[N+](=O)[O-])c3ccc(=[N+](CC)CC)cc-3oc2c1.Cl (stereo not given in full)
Drug uptake [40]: Active
Drug uptake [41]: Active

CC1(C)[C@H](C(=O)O)N2C(=O)C[C@H]2S1(=O)=O [SULBACTAM]
Activity [20]: Active
Activity [42]: 98%
Activity [43]: 45%
inhibition [44]: 93.3%
MIC [45]: 14 µg/mL

CC1(C)S[C@@H]2[C@H](NC(=O)[C@H](N)c3ccccc3)C(=O)N2[C@H]1C(=O)O [AMPICILLIN]
MIC [46]: 8 µg/mL (≈ 22.9 µM)
MIC [47]: 150 µg/mL (≈ 429 µM)
